Assay results reported in patent US7084158B2, “Substituted propargylamines” (Bayer Cropscience S.A., priority 2001, dated 2006).

How the values were obtained:
Type in all cases: in vivo
Parameters in all cases: key: compounds were considered to be active when, at a concentration of 500 ppm or less, they had an activity on the harmful organisms of 50% or more
Heliothis virescens [1] = experiment: Example B: tobacco budworm eggs on filter paper/insect diet, mortality; conditions: 500 ppm or less; 24-hour-old eggs dipped, diet treated; after 6 days
Plutella maculipennis [2] = experiment: Example K: sprayed white cabbage leaf, diamondback moth larvae mortality; conditions: 500 ppm or less, after 3 days
Description: A white cabbage leaf was sprayed with an aqueous solution of the formulated compound to be examined. After the spray coating had dried, the treated leaf was populated with larvae of the diamondback moth (Plutella maculipennis). After 3 days of storage at about 23° C., the effect of the compound on the larvae was determined (mortality). The compounds of the following examples were active: 60, 70, 1002, 1004, 1005, 1036, 197.

[3] = system: Leptinotarsa decemlineata; experiment: Example L: potato leaves and larvae sprayed, Colorado beetle mortality; conditions: 500 ppm or less, after 4 days
Description: Potato leaves were populated with larvae of the Colorado beetle (Leptinotarsa decemlineata). Leaves and larvae were then sprayed with an aqueous solution of the formulated compound to be examined. After 4 days of storage at about 25° C., the effect of the compound on the larvae was determined (mortality). The compounds of the following examples were active: 60, 70, 1002, 1004, 1005, 1036, 1047, 197.

Heliothis virescens [4] = experiment: Example V: dipped freeze-dried diet cube, tobacco budworm L2 larvae mortality; conditions: 500 ppm or less, after 4 days
Description: Insect diet (as freeze-dried cube) was dipped into an aqueous solution of the formulated compound to be examined and then placed into a Petri dish. 10 L2 larvae of the American tobacco budworm (Heliothis virescens) were then added. The Petri dish was then closed with a lid. After 4 days of storage at about 23° C., the mortality among the larvae was determined. The following examples were active: 1036, 60.

Plutella maculipennis [5] = experiment: Example W: cabbage plant, root-systemic activity on diamondback moth larvae; conditions: 500 ppm or less; cabbage plant in treated water, populated after one week; after 3 days
Description: 2.4 ml of an aqueous solution of the formulated compound to be examined were pipetted into a bottle filled with 21.6 ml of water. A 14-day-old cabbage plant was transferred into the bottle. After one week, the plant was populated with 5 larvae of the diamondback moth (Plutella maculipennis). Plants and animals were then stored in a climatized chamber (23° C., 40–60% relative atmospheric humidity). After 3 days of storage, the root-systemic activity of the compound on the larvae was determined (mortality). The following examples were active: 1036, 70, 60.

Spodoptera exigua [6] = experiment: Example Y: cotton plants sprayed, cut leaves, sugar beet armyworm mortality; conditions: 500 ppm or less, leaves cut after drying, L2 larvae, after 4 days
Description: Cotton plants were sprayed with an aqueous solution of the formulated compound to be examined. After drying, leaves were cut off, placed into a Petri dish and populated with 5 L2 larvae of the sugar beet armyworm (Spodoptera exigua). After 4 days of storage at about 23° C., the mortality among the larvae was determined. The following examples were active: 1036, 70, 60, 1047, 197.

Spodoptera exigua [7] = experiment: Example Z: cotton leaves with larvae sprayed, sugar beet armyworm mortality; conditions: 500 ppm or less; cotton leaves populated then sprayed; L2 larvae; after 4 days
Description: Cotton leaves were populated with 5 L2 larvae of the sugar beet armyworm (Spodoptera exigua) and then sprayed with an aqueous solution of the formulated compound to be examined. After 4 days of storage at about 23° C., the mortality among the larvae was determined. The following examples were active: 1036, 70, 60, 1047, 197.

CC1CCN(CC#Cc2cc(C(F)(F)F)cc(C(F)(F)F)n2)CC1 [Example 60]
active: effect on the eggs and hatched larvae (mortality) (Heliothis virescens [1]) | effect on the larvae (mortality) (Plutella maculipennis [2]) | effect on the larvae (mortality) [3] | mortality among the larvae (Heliothis virescens [4]) | root-systemic activity on the larvae (mortality) (Plutella maculipennis [5]) | mortality among the larvae (Spodoptera exigua [6]) | mortality among the larvae (Spodoptera exigua [7])
